Assays:
[1] = system: α1 adrenergic receptors (rat cerebral cortex); assay: Radioligand binding assay, adrenergic α1 receptors; conditions: test compound 1×10^−6 M
From the text: The specific ligand binding to the receptors is defined as the difference between the total binding and the non-specific binding determined in the presence of the excess of unlabelled ligand.
The results are expressed as a percent of control specific binding ((measured specific binding/control specific binding)×100) and as a percent inhibition of control specific binding (100−((measured specific binding/control specific binding)×100)) obtained in the presence of the test compounds. The specific ligand binding to the receptors is defined as the difference between the total binding and the nonspecific binding determined in the presence of an excess of unlabelled ligand. Scintillation counting was the method of detection of ligand binding. The IC50 values (concentration causing a half-maximal inhibition of control specific binding) were determined by non-linear regression analysis of the competition curves generated with mean replicate values using Hill equation curve fitting (Y=D+[(A−D)/(1+(C/C50)nH)], where Y=specific binding, D=minimum specific binding, A=maximum specific binding, C=compound concentration, C50=IC50, and nH=slope factor). […] The inhibition constants (Ki) were calculated using the Cheng Prusoff equation (Ki=IC50/(1+(L/KD)), where L=concentration of radioligand in the assay, and KD=affinity of the radioligand for the receptor). A scatchard plot was used to determine the Kd.

5-HT7 receptor = molecular target: T1, 5-HT7 receptor (Homo sapiens, UniProt P34969); assay: Radioligand binding assay, serotoninergic 5-HT7 receptors; conditions: binding assay result in %, Table 5a;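 further: test compound at 1 µM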
T1 construct: purchased PerkinElmer
T1 sequence (P34969 whole entry): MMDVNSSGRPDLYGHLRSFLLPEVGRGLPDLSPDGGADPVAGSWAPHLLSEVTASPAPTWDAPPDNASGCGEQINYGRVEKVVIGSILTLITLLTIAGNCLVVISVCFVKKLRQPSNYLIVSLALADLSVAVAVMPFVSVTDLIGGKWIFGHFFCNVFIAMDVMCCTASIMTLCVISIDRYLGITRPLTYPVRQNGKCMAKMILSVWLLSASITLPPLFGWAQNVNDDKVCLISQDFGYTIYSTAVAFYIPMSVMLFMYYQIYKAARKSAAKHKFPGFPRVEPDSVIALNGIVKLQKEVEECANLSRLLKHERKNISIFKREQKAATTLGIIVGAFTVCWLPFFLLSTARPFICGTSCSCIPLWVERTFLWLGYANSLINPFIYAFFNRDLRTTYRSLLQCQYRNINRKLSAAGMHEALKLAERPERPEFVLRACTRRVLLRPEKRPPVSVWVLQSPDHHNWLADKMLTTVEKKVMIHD
Procedure, shortened: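 Competition binding at human 5-HT7 receptors with a radioligand, detected by scintillation counting; non-specific binding was defined with excess unlabelled ligand. IC50 came from Hill-equation fits of competition curves, and Ki from Cheng–Prusoff using radioligand concentration and Scatchard-derived KD.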

5-HT6 receptor = molecular target: T2, 5-HT6 receptor (Homo sapiens, UniProt P50406); assay: Radioligand binding assay, serotoninergic 5-HT6 receptors; conditions: binding assay result in %, Table 5a;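 further: test compound at 1 µM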
T2 construct: purchased PerkinElmer
T2 sequence (P50406 whole entry): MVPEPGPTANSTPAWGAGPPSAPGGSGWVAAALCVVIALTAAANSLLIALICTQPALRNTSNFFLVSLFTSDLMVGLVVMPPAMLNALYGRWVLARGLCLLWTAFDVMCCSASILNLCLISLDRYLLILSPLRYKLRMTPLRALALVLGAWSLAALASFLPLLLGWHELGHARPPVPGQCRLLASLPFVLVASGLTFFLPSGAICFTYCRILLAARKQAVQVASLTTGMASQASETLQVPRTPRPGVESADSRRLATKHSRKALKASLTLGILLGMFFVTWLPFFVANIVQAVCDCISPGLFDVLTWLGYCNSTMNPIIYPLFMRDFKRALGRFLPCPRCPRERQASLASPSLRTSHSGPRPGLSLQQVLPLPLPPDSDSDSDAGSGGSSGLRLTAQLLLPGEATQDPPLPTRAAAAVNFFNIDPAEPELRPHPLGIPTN
Procedure, shortened: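 Values are Ki from Cheng–Prusoff, taking IC50 from Hill nonlinear regression of competition curves and KD from a Scatchard plot. Specific binding was total minus binding with excess unlabelled ligand. Radioligand displacement was detected by scintillation counting, and data were also reported as percent of control specific binding.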

5-HT2A receptor = molecular target: T3, 5-HT2A receptor (Homo sapiens, UniProt P28223); assay: Radioligand binding assay, serotoninergic 5-HT2A receptors; conditions: binding assay result in %, Table 5a
T3 construct: purchased PerkinElmer
T3 sequence (P28223 whole entry): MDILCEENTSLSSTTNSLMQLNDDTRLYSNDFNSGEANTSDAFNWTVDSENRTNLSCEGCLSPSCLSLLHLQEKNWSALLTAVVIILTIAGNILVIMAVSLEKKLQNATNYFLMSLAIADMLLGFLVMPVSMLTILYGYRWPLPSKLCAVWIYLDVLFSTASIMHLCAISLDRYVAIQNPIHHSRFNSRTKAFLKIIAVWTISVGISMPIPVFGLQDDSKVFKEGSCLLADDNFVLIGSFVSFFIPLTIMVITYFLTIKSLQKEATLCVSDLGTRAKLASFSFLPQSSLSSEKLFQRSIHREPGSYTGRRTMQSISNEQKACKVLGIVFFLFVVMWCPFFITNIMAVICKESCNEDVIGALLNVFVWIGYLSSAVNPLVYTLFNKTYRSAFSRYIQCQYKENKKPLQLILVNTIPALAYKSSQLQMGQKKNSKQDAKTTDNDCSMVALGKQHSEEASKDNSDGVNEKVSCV
Procedure, shortened: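 Radioligand competition binding with scintillation counting; nonspecific binding defined by excess unlabelled ligand. Data as percent inhibition of control specific binding. IC50 by Hill-equation fit of competition curves; Ki by Cheng-Prusoff, with radioligand Kd from Scatchard plot.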

[2] = molecular target: T4, 5-HT1A receptor (rat hippocampus) (Rattus norvegicus, UniProt P19327); assay: Radioligand binding assay, serotoninergic 5-HT1A receptors; conditions: binding assay result in %, Table 5a;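 further: test compound at 1 µM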
T4 construct: hippocampus; from tissue; host or cells: rat hippocampus
T4 sequence (P19327 1-422): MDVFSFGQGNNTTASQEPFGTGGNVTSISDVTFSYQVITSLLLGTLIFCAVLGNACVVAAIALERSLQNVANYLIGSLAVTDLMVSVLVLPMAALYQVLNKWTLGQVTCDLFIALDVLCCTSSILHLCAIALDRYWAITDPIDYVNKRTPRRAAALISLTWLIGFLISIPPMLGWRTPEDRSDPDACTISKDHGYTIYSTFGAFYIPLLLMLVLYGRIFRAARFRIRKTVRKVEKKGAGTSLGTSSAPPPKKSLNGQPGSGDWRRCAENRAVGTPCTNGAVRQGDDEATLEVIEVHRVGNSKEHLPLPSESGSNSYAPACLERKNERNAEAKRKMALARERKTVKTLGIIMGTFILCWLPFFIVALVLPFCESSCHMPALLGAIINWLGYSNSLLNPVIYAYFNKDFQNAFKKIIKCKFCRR

[3] = molecular target: dopaminergic receptors D3 (Homo sapiens, UniProt P35462); assay: Radioligand binding assay, dopaminergic D3 receptors; conditions: test compound 1×10^−6 M
dopaminergic receptors D3, sequence (P35462 whole entry): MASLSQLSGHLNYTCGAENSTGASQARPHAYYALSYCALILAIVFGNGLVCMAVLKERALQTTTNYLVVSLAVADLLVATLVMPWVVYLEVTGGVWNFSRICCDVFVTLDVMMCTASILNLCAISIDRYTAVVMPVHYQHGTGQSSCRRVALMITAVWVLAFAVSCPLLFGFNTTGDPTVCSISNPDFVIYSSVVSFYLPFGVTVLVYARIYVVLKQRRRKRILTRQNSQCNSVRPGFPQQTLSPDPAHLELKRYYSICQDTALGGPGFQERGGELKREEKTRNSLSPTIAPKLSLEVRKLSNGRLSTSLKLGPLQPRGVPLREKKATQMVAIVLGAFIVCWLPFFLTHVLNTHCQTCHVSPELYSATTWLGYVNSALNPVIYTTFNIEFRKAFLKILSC
Procedure, shortened: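 Competition radioligand binding at human D2, D3 and D4.4 receptors, detected by scintillation counting; nonspecific binding defined with excess unlabelled ligand. Results as percent inhibition of control specific binding; IC50 by Hill-equation nonlinear regression; Ki via Cheng-Prusoff, with radioligand KD from Scatchard plot.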

[4] = molecular target: T5, serotonin transporter (SERT) (Homo sapiens, UniProt P31645); assay: Radioligand binding assay, serotonin transporter (SERT); conditions: binding assay, test compound 1×10^−6 M
T5 construct: expressed in transfected cells; host or cells: CHO cells
T5 sequence (P31645 whole entry): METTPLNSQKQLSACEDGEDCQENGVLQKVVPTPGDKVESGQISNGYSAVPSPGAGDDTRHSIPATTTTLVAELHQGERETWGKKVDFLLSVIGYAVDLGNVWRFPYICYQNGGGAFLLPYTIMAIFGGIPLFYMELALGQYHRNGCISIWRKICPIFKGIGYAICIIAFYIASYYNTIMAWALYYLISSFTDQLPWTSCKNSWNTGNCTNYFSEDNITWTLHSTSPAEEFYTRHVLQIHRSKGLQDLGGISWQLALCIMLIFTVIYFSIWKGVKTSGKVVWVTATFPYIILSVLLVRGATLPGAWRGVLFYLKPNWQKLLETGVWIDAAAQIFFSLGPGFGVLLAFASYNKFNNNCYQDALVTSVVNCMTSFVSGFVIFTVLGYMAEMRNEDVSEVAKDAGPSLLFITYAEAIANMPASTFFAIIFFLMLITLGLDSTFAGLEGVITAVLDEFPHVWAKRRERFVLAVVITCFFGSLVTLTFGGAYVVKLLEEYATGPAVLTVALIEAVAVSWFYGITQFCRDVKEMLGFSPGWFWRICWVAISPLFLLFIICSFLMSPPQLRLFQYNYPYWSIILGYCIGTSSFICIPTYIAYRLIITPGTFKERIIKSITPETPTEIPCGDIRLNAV
Procedure, shortened: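 Radioligand competition binding with scintillation detection; specific binding is total minus binding under excess unlabelled ligand. Reported as % of control specific binding or % inhibition; IC50 from Hill-equation non-linear regression of competition curves, and Ki via Cheng-Prusoff using radioligand concentration and Scatchard-derived KD.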

[5] = molecular target: dopaminergic receptors D2 (Homo sapiens, UniProt P14416); assay: Radioligand binding assay, dopaminergic D2 receptors; conditions: binding assay, test compound 1×10^−6 M
dopaminergic receptors D2, sequence (P14416 whole entry): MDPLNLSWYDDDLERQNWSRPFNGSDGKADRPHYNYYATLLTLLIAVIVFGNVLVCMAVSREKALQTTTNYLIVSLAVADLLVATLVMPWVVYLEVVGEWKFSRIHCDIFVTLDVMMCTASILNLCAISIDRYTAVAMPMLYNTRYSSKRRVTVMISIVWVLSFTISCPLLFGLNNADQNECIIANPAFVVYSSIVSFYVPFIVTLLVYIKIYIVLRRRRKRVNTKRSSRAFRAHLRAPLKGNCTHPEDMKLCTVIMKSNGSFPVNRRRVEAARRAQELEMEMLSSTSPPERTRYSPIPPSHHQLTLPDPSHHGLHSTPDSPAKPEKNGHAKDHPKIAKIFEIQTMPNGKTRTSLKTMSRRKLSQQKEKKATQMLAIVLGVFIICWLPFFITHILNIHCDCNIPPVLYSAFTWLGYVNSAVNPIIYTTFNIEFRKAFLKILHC
Procedure, shortened: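 Competition binding with scintillation counting of bound radioligand; specific binding taken as total minus non-specific binding measured with excess unlabelled ligand. IC50 obtained by Hill-equation non-linear regression of replicate-mean curves, then converted to Ki via Cheng–Prusoff using radioligand concentration and Scatchard-derived KD.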

Row | Structure (SMILES) | α1 [%] [1] | inhibition at 1 µM (5-HT7 receptor) | inhibition at 1 µM (5-HT6 receptor) | inhibition at 1 µM (5-HT2A receptor) | inhibition at 1 µM [2] | inhibition at 1 µM [3] | inhibition at 1 µM [4] | inhibition at 1 µM [5] | 5-HT7 [%] (5-HT7 receptor) | 5-HT6 [%] (5-HT6 receptor) | 5-HT2A [%] (5-HT2A receptor) | 5-HT1A [%] [2] | D3 [%] [3] | SERT [%] [4] | D2 [%] [5]
1 | O=S(=O)(NCC1CN(CCOc2cccc3ccccc23)C1)c1ccc2cc(Cl)ccc2c1 [Compound 165, 6-Chloro-N-[[1-[2-(1-naphthyloxy)ethyl]azetidin-3-yl]methyl]naphthalene-2-sulphonamide] | 15% | 105% | 97% | 99% | 87% | 100% | 111% | 66% |  |  |  |  |  |  | 
2 | O=S(=O)(NCC1CCN(CCOc2ccc3cc[nH]c3c2)CC1)c1cccc2ccccc12 [Compound 71, N-[[1-[2-(1H-Indol-6-yloxy)ethyl]-4-piperidine]methyl]naphthalene-1-sulphonamide] | 36% |  |  |  |  |  |  |  | 31% | 80% | 26% | 28% | −1% | 49% | 27%
3 | O=S(=O)(NC1CCN(CCOc2cccc3c2OCCO3)C1)c1cccc2ccccc12 (stereo not shown) [Compound 98, N-[1-[2-(2,3-Dihydro-1,4-benzodioxan-8-yloxy)ethyl]pyrrolidin-3-yl]-naphthalene-1-sulphonamide] | 78% |  |  |  |  |  |  |  | 100% | 32% | 87% | 92% | 67% | 16% | 62%
4 | O=S(=O)(NCC1CN(CCOc2cccc3c2OCCO3)C1)c1ccc2cc(Cl)ccc2c1 [Compound 174, 6-Chloro-N-[[1-[2-(2,3-dihydro-1,4-benzodioxin-5-yloxy)ethyl]azetidin-3-yl]methyl]naphthalene-2-sulphonamide] | 15% | 90% | 64% | 44% | 91% | 22% | 20% | 25% |  |  |  |  |  |  | 
5 | O=S(=O)(NCC1CCN(CCOc2cccc3c2OCCO3)C1)c1ccc(Cl)s1 (stereo not shown) [Compound 316, 5-Chloro-N-[[1-[2-(2,3-dihydro-1,4-benzodioxin-5-yloxy)ethyl]pyrrolidin-3-yl]-methyl]thiophene-2-sulphonamide] | 66% | 87% | 36% | 82% | 74% | 36% | 8% | -2% |  |  |  |  |  |  | 
6 | O=S(=O)(NCC1CN(CCCc2c[nH]c3ccc(Cl)cc23)C1)c1ccc2ccccc2c1 [Compound 161, N-[[1-[3-(5-Chloro-1H-indol-3-yl)propyl]azetidin-3-yl]methyl]naphthalene-2-sulphonamide] | 46% | 83% | 87% | 88% | 86% | 75% | 66% | 84% |  |  |  |  |  |  | 
7 | O=S(=O)(NCC1CN(CCOc2cccc3c2OCCO3)C1)c1ccc(Br)cc1 [Compound 185, 4-Bromo-N-[[1-[2-(2,3-dihydro-1,4-benzodioxin-5-yloxy)ethyl]azetidin-3-yl]methyl]benzenesulphonamide] | 34% | 90% | 23% | 39% | 88% | 0% | 23% | 25% |  |  |  |  |  |  | 
8 | O=S(=O)(NC1CCN(CCCc2noc3cc(F)ccc23)C1)c1ccc(Cl)s1 (stereo not shown) [Compound 22, 5-Chloro-N-[1-[3-(6-fluoro-1,2-benzoxazol-3-yl)propyl]pyrrolidin-3-yl]thiophene-2-sulphonamide] | 91% | 85% | 72% | 95% | 0% | 23% | 5% | 85% |  |  |  |  |  |  | 
9 | O=S(=O)(NCC1CN(CCOc2cccc3c2OCCO3)C1)c1csc2ccccc12 [Compound 190, N-[[1-[2-(2,3-Dihydro-1,4-benzodioxin-5-yloxy)ethyl]azetidin-3-yl]methyl]-benzothiophene-3-sulphonamide] | 86% | 97% | 34% | 68% | 100% | 62% | 31% | 51% |  |  |  |  |  |  | 
10 | O=S(=O)(NC1CCN(CCOc2cccc3[nH]ccc23)C1)c1cccc2ccccc12 (stereo not shown) [Compound 53, N-[1-[2-(1H-indol-4-yloxy)ethyl]pyrrolidin-3-yl]naphthalene-1-sulphonamide] | 88% | 102% | 54% | 85% | 90% | 99% | 56% | 74% |  |  |  |  |  |  | 
11 | Cc1ccc(S(=O)(=O)NCC2CCN(CCOc3cccc4c3OCCO4)C2)cc1 (stereo not shown) [Compound 291, N-[[1-[2-(2,3-Dihydro-1,4-benzodioxin-5-yloxy)ethyl]pyrrolidin-3-yl]methyl]-4-methyl-benzenesulphonamide] | 66% | 80% | 19% | 63% | 94% | 33% | 66% | 29% |  |  |  |  |  |  | 
12 | O=S(=O)(NCC1CCN(CCOc2cccc3ccccc23)C1)c1cc2ccc(Cl)cc2s1 (stereo not shown) [Compound 269, 6-Chloro-N-[[1-[2-(1-naphthyloxy)ethyl]pyrrolidin-3-yl]methyl]-benzothiophene-2-sulphonamide] | −1% | 98% | 82% | 91% | 60% | 89% | 53% | 38% |  |  |  |  |  |  | 
13 | CC1(C)Cc2cccc(OCCN3CCC(CNS(=O)(=O)c4ccc5ccccc5c4)C3)c2O1 (stereo not shown) [Compound 114, N-[[1-[2-[(2,2-Dimethyl-3H-benzofuran-7-yl)oxy]ethyl]pyrrolidin-3-yl]methyl]naphthalene-2-sulphonamide] | 27% | 97% | 56% | 90% | 98% | 62% | 5% | 49% |  |  |  |  |  |  | 
14 | Cc1c(S(=O)(=O)NCC2CCN(CCOc3cccc4ccccc34)C2)sc2ccc(Cl)cc12 (stereo not shown) [Compound 272, 5-Chloro-3-methyl-N-[[1-[2-(1-naphthyloxy)ethyl]pyrrolidin-3-yl]methyl]benzothiophene-2-sulphonamide] | −7% | 88% | 67% | 82% | 63% | 88% | 20% | 40% |  |  |  |  |  |  | 

Reference: patent US20140135310A1, “SULPHONAMIDE DERIVATIVES OF ALICYCLIC AMINES FOR THE TREATMENT OF CENTRAL NERVOUS SYSTEM DISEASES” (Adamed Sp. z o.o., priority 2011, published 2014)
